In assay [1] the test system is A/Kansas/14/2017 strain (A/H3N2). It counts as in vivo, BALB/c mice. As to conditions: for GMT (geometric mean IgG antibody titer) / GMT ratio to the non-adjuvanted group: BALB/c mice; for GMT (geometric mean IgG antibody titer): subcutaneous 0.1 mL, 0.6 μg HA/strain, serum 21 days after administration; for GMT ratio to the non-adjuvanted group: subcutaneous.
Assay [2] deals with B/Maryland/15/2016 strain (B/Victoria). It counts as in vivo, BALB/c mice. As to conditions: for GMT (geometric mean IgG antibody titer) / GMT ratio to the non-adjuvanted group: BALB/c mice; for GMT (geometric mean IgG antibody titer): subcutaneous 0.1 mL, 0.6 μg HA/strain, serum 21 days after administration; for GMT ratio to the non-adjuvanted group: subcutaneous.

Ends that are not written are not given here. C10PNA = 10-mer peptide nucleic acid with ten cytosine bases

Regarding “MIP-03: HIV TAT-derived peptide of 13 amino acids (SEQ ID NO: 1) covalently bound at its C-terminal to C10PNA (GRKKRRQRRRPPQ-C10PNA)”, the “GMT (geometric mean IgG antibody titer)” value in assay [1] is 112071; in assay [2], 25802. Further, the entries for the “GMT ratio to the non-adjuvanted group” value in assay [1] (Day 21) and in assay [2] (Day 21) were 8.7 and 1.7, respectively.
Consider 5′-[…]-3′ (SEQ ID NO: 9) [ODN1826], for which the “GMT (geometric mean IgG antibody titer)” value stood at 65838 in assay [1] and 31152 in assay [2]. For the same substance, the “GMT ratio to the non-adjuvanted group” value in assay [1] (Day 21) worked out at 5.1; in assay [2] (Day 21) it was 2.1. For the same substance, the “Subclass ratio of IgG1/IgG2a” value in assay [1] (Day 21) and in assay [2] (Day 21) was “IgG2a dominant” each time.

The record behind these values is patent US20240207395A1, “ADJUVANT ACTIVITY ENHANCER AND ADJUVANT COMPOSITION” (priority 2021, published 2024).
